{"source": "patent US20230321114A1", "about": "“METHODS OF TREATING AGE-RELATED COGNITIVE DECLINE” (Woolsey Pharmaceuticals, Inc., priority 2020, published 2023)", "origin": "cited, not measured here", "key": {"[1]": {"details": "in vivo, metabolite"}, "memory in aging rats": {"system": "memory in aging rats", "details": "eighteen-month old rats, 0.1875 or 0.3750 mg per day, single daily injection"}}}
{"smiles": "O=S(=O)(c1cccc2c(O)nccc12)N1CCCNCC1", "note": "[hydroxyfasudil]", "values": [{"measurement": "half-life", "setting": "[1]", "value": "about 8 hours"}, {"measurement": "spatial reference memory", "setting": "memory in aging rats; Morris Water Maze", "value": "not in spatial reference memory"}, {"measurement": "working memory", "setting": "memory in aging rats; Morris Water Maze (radial maze)", "value": "improvements in working memory"}]}
